The record followed here is patent US11161846B2, “Substituted pyrazolo[4,3-b]pyridines and their use as GluN2B receptor modulators” (JANSSEN PHARMACEUTICA NV, priority 2019, dated 2021).

Data set [1] can be described thus: Liver microsomal stability (extraction ratio). In kind it is in vitro ADME. The conditions noted are these: test compound 1 μM; 0.5 mg/mL liver microsomes, NADPH, 37° C.; species not given (method: mouse, rat, and human). On the procedure:
Protocol for Liver Microsomal Stability (Extraction Ratio)
Liver Microsomal Stability.
Microsomal stability studies (Chrovian et al, “1H-Pyrrolo[3,2-b]pyridine GluN2B-Selective Negative Allosteric Modulators”. ACS Med Chem Lett. 2019 Jan. 10; 10(3):261-266) were conducted on a Biomek® FX Robotic Liquid Handling Workstation (Beckman Coulter, Brea, Calif.), which consists of a 96-channel pipette head, a 12-position workstation deck, and a plate incubator. Test compounds (1 μm) were spiked in a reaction mix consisting of 100 mM potassium phosphate buffer (pH 7.4), 3 mM MgCl2, and 0.5 mg/mL liver microsomes from mouse, rat, and human (BD Gentest). The reaction was brought to 37° C. and initiated by adding NADPH to a final concentration of 1 mM. After mixing on the plate deck, 50 μL aliquots were excised from the reaction plate at 0, 5, 10, 20, 40, and 60 min and quenched with four volumes of acetonitrile spiked with […] of the internal standard phenytoin. Quenched plates were centrifuged at 5700 rpm for 10 min at 4° C., and supernatant was diluted 1:3 in water before LC/MS/MS analysis. The compound half-lives were derived from plots of the ln of percent remaining compound over time to determine the intrinsic clearance. The predicted hepatic clearance was derived from the intrinsic clearance value using equations from the well-stirred model (Current Drug Metabolism, 2008, 9, 940-951), where no correction was made plasma protein binding and the blood to plasma concentration ratio was assumed to be one. The extraction ratio (ER) was calculated by dividing the predicted hepatic clearance by species blood flow (Q), where Q is 90, 55, and 21.7 mL/min/kg for mouse, rat and human, respectively.
For orientation: Microsomes from liver hold many membrane-bound enzymes, among them those of drug oxidation.

For data set [2], the target named is T1, human GluN1/GluN2B NMDA receptors (Homo sapiens, UniProt Q05586+Q13224).
T1 construct: expressed in transfected cells
The data set can be described thus: Calcium flux (FLIPR) assay on cloned human NR1/GluN2B ion channels expressed in mammalian cells, standard assay. The data set is classed as cell-based. The conditions noted are these: glutamate ~EC40 and 10 μM glycine, stable cell line with Tet-On induced expression. A digest of the protocol: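 Tet-On-induced stable mammalian line loaded with Calcium 5 dye (0.5 mM MgCl2 loading buffer), then assayed in pH 7.4 buffer with 137 mM NaCl, 4 mM KCl, 2 mM CaCl2. Compound was added for 5 min, then glutamate (~EC40) plus 10 µM glycine for 5 min. FLIPR fluorescence was normalized to control wells.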
Background: Calcium assays in cells follow changes in intracellular calcium, usually with a dye or a luminescent sensor.

The structures appear in SMILES notation.

T1 sequence (Q13224 27-1484, other chains not shown): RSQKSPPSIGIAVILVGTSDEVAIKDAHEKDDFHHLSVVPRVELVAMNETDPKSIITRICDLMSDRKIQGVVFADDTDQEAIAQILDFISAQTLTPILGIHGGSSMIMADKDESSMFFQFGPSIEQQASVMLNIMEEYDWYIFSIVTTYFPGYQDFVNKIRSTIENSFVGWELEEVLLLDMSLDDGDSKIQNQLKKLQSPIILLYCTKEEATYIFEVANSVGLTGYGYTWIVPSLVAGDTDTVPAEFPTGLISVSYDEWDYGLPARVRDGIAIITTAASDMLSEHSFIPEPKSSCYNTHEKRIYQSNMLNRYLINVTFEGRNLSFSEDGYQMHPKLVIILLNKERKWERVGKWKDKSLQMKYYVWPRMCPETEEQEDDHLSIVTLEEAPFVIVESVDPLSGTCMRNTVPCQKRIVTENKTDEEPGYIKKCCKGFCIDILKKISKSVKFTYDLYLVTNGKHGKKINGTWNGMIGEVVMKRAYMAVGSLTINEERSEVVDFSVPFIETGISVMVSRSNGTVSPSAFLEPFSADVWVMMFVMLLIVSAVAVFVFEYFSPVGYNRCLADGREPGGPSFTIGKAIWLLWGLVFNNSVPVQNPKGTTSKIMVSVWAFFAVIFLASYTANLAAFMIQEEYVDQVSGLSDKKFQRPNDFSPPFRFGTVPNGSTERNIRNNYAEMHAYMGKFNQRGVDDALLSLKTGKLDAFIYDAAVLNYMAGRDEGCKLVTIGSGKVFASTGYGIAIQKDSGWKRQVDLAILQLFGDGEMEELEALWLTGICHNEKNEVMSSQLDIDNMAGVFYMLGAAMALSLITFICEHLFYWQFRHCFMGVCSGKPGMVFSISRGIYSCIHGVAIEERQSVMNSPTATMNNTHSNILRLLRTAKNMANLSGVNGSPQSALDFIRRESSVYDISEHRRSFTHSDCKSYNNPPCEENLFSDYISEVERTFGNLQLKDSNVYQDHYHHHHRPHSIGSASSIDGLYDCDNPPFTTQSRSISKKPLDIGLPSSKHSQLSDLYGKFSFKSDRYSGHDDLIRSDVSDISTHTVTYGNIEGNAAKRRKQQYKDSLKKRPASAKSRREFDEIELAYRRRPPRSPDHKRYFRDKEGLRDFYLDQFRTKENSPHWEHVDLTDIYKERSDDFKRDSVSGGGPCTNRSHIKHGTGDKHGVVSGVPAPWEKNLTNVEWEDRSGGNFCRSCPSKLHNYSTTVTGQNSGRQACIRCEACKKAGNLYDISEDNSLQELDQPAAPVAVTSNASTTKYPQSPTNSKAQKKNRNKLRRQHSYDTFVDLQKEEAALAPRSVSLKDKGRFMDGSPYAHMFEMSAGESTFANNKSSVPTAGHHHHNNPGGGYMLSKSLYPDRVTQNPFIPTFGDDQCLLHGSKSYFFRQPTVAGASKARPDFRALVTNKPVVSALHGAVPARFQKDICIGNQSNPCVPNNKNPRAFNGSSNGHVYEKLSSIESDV

What is called IC50 is the concentration at which inhibition is half-maximal. `O=C(Cn1ncc2ncc(-c3cccc(C(F)F)c3)cc21)C1CC1` [Example 61, 1-Cyclopropyl-2-[6-[3-(difluoromethyl)phenyl]pyrazolo[4,3-b]pyridin-1-yl]ethanone]: the “Extraction Ratio @ 1 μM” value in data set [1] was found to be 0.43. For the same compound, the 50% inhibitory concentration (IC50) in data set [2] is 12 nM.

For `CC[S+]([O-])Cn1ncc2ncc(-c3cccc(C(F)(F)F)c3F)cc21` (racemic) [Example 86, (RS)-1-(Ethylsulfinylmethyl)-6-[2-fluoro-3-(trifluoromethyl)phenyl]pyrazolo[4,3-b]pyridine], the “Extraction Ratio @ 1 μM” value in data set [1] was 0.50. For the same compound, the IC50 in data set [2] is 80 nM.

For the compound `CCC(=O)Cn1nc(C)c2ncc(-c3ccc(F)c(C(F)F)c3)cc21` [Example 36, 1-(6-(3-(Difluoromethyl)-4-fluorophenyl)-3-methyl-1H-pyrazolo[4,3-b]pyridin-1-yl)butan-2-one], the “Extraction Ratio @ 1 μM” value in data set [1] is reported as 0.72. Further, the IC50 in data set [2] came to 27 nM.

Consider `CCC(=O)Cn1ncc2ncc(-c3ccc(F)c(C(F)F)c3)cc21` [Example 4, 1-[6-[3-(Difluoromethyl)-4-fluoro-phenyl]pyrazolo[4,3-b]pyridin-1-yl]butan-2-one], for which the “Extraction Ratio @ 1 μM” value in data set [1] is reported as 0.66. Also, the IC50 in data set [2] amounted to 10 nM.

Consider `CCN1CC(Cn2ncc3ncc(-c4ccc(F)c(C(F)F)c4)cc32)OC1=O` (racemic) [Example 131, (RS)-5-[[6-[3-(Difluoromethyl)-4-fluoro-phenyl]pyrazolo[4,3-b]pyridin-1-yl]methyl]-3-ethyl-oxazolidin-2-one], for which, in data set [1], the “Extraction Ratio @ 1 μM” value turned out to be 0.58. In addition, the IC50 in data set [2] amounted to 193 nM.

Take `CC[S+]([O-])Cn1ncc2ncc(-c3ccc(F)c(C(F)F)c3)cc21` (single isomer, unassigned) [Example 85, (R*)-6-(3-(Difluoromethyl)-4-fluorophenyl)-1-((ethylsulfinyl)methyl)-1H-pyrazolo[4,3-b]pyridine]: the “Extraction Ratio @ 1 μM” value in data set [1] is recorded as 0.46. The half-inhibitory concentration (IC50) in data set [2] was 66 nM.

For the compound `CCC(=O)Cn1ncc2ncc(-c3cccc(C(F)(F)F)c3F)cc21` [Example 38, 1-[6-[2-Fluoro-3-(trifluoromethyl)phenyl]pyrazolo[4,3-b]pyridin-1-yl]butan-2-one], the “Extraction Ratio @ 1 μM” value in data set [1] is 0.61. Moreover, the half-maximal inhibitory concentration (IC50) in data set [2] is 30 nM.

As to `Cc1c(F)ccc(-c2cnc3cnn(CC(=O)C4CC4)c3c2)c1C` [Example 78, 1-Cyclopropyl-2-[6-(4-fluoro-2,3-dimethyl-phenyl)pyrazolo[4,3-b]pyridin-1-yl]ethanone], the “Extraction Ratio @ 1 μM” value in data set [1] is reported as 0.52. Further, the concentration for half-maximal inhibition (IC50) in data set [2] came out at 85 nM.

Turning to `CCC(=O)Cn1ncc2ncc(-c3cc(F)c(F)c(F)c3)cc21` [Example 42, 1-[6-(3,4,5-Trifluorophenyl)pyrazolo[4,3-b]pyridin-1-yl]butan-2-one], in data set [1], the “Extraction Ratio @ 1 μM” value was found to be 0.63. Also, in data set [2], the IC50 amounted to 27 nM.

With `CC(=O)Cn1ncc2ncc(-c3ccc(F)c(OC(F)F)c3)cc21` [Example 25, 1-[6-[3-(Difluoromethoxy)-4-fluoro-phenyl]pyrazolo[4,3-b]pyridin-1-yl]propan-2-one], in data set [1], the “Extraction Ratio @ 1 μM” value is recorded as 0.64. Moreover, in data set [2], the IC50 stood at 34 nM.
